Assay results taken from patent US8912227B1, “Bicyclic pyrrole derivatives useful as agonists of GPR120” (Janssen Pharmaceutica NV, priority 2014, dated 2014).

Columns and labels:
Type in all cases: cell-based
[1] = molecular target: T1, Human GPR120 short form (Homo sapiens, UniProt Q5NUL3); assay: Human GPR120 calcium flux assay, Procedure Calcium B; details: HEK-293 cells expressing human GPR120 short form, 4200 cells/well, FLIPR
T1 construct: expressed in transfected cells
T1 sequence (Q5NUL3 1-361): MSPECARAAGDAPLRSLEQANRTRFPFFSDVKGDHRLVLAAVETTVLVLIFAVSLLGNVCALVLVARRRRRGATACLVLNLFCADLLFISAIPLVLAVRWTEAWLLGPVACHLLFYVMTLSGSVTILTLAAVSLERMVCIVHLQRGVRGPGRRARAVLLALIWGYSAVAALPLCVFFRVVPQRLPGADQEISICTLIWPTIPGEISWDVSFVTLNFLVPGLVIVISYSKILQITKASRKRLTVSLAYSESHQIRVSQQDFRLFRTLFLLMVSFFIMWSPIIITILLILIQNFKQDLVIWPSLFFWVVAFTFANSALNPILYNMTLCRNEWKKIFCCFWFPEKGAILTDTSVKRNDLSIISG
Description: (§1) This in vitro assay serves to assess test compound agonist activity against the short splice variant (SVS with Accession number NM_001195755.1 confirmed by sequencing data) of the GPR120 receptor. The Human Short splice variant #2 (NM_001195755.1) is missing an in-frame coding exon compared to variant 1 (the Human Long splice variant NM_181745.3), resulting in a shorter isoform (GPR120-S) lacking a 16 aa protein segment compared to isoform GPR120-L. The assay platform utilizes HEK-293 cells stably transfected to express the Human GPR120 short form. These cells are first loaded with the Ca^+2 sensitive dye, Fluo-4 NW. Upon stimulation, intracellular released Ca^+2 can bind to the dye and alter its fluorescence intensity. This increase in fluorescence signal, and thus the flux in intracellular [Ca^2+], is detected and quantitated by fluorescence imaging using a FLIPR reader. The effect of the agonist is measured as a function of concentration and used to calculate an EC50 based upon a response curve.
In this procedure 4200 cells/well were employed.
(§2) A Human GPR120 clone (Genbank accession number NM_001195755.1) was placed into the pcDNA3.1 mammalian expression vector carrying the neomycin resistance gene. A stable mammalian cell was generated by placing the above clone into a HEK293 background. Clonal cells responding to long chain fatty acids had expression levels of GPR120 confirmed by RT-qPCR. Human HEK-GPR120 cells were cultured in Dulbecco's Modified Eagle's Medium (DMEM)/F12 medium supplemented with 10% fetal bovine serum (FBS), 1% L-Glutamine and 1% penicillin/streptomycin and 0.5 mg/ml G-418. Cells were split 2 times a week to keep the cells in the log-phase growth.
(§3) In preparation for the assay, HEK cells stably transfected with Human GPR120 (2.5K cells per well in 25 uL growth medium) were seeded into 384-well plates and then incubated overnight (37° C., 5% CO2). The next day, the media was changed to 20 μl assay buffer and the cell starved for 1 h at 37° C. The dye loading solution (2× dye) was prepared using 10 ml assay buffer, 100 μl of 250 mM probenecid, 1 bottle of Component A, and 20 μl of dye in DMSO. Twenty μl of the 2× dye loading buffer was then added to each well. The plates were incubated at 37° C. for 30 min, then at room temperature for an additional 15 minutes, before performing the assay on FLIPR.
(§4) Test compounds were prepared in assay buffer (2 μl of test compound+198 μl assay buffer, final DMSO in assay plate is 0.2%) at the desired concentration, more particularly at 100 μM, 50 μM, 25 μM, 12.5 μM, 6.25 μM, 3.125 μM, 1.562 μM, 0.781 μM, 0.391 μM, 0.195 μM, 0.098 μM, 0.049 μM, 0.024 μM and 0.012 μM.
(§5) The assay was performed on a FLIPR plate reader using the following parameters. Baseline was read for 10 seconds at 1 sec intervals. The program was set to transfer 10 μL of ligand from compound plate to cell plate after baseline reading. Aspiration was executed at: 10 μl/sec speed, 4.6 μl height; Dispensing was executed at: 30 μl/sec speed, 45 μl height. After compound addition, each well was read for 300 sec, with measurements collected at 1 sec intervals.
(§6) The kinetic data from the FLIPR was based upon a 5 minute window for data collection. The fluorescence of each sample well was used for individual calculations of a normalized RFU value, which was defined as maximum response minus the minimum response. The normalized fluorescence reading (RFU) was calculated as follows: RFU=Fmax−Fmin
(§7) The data were fitted to a sigmoidal dose-response curve with a variable Hill slope (<2) using nonlinear regression with GraphPad Prism 5.0 to calculate the EC50 values. The Fitting Equation was: Y=Bottom+(Top−Bottom)/(1+10^((LogEC50−X)*HillSlope)), where X is the log of the concentration and Y is the response.

[2] = molecular target: T2, long form of human GPR120 (Homo sapiens, UniProt Q5NUL3); assay: Human GPR120 DiscoveRx PathHunter β-Arrestin assay, Procedure β-arrestin A; details: PathHunter CHO-K1 GPR120 β-Arrestin cell line, 3000 cells per well
T2 construct: host or cells: PathHunter CHO-K1 GPR120 β-Arrestin Cell Line
Description: The binding of an agonist (medium/long chain fatty acids or small molecule agonists) to the G-protein-coupled receptor GPR120 activates phospholipase C, leading to release of intracellular Ca^+2 through the generation of inositol 1,4,5-trisphosphate (InsP3 or IP3). GPR120 activation can also trigger intracellular signaling via recruitment of β-Arrestin. In the present method, agonist-induced activation of the human GPR120 receptor is monitored through the use of PathHunter CHO-K1 GPR120 β-Arrestin Cell Line engineered by DiscoveRx, as detailed below. The cell lines are designed to co-express both the ProLink/Enzyme Donor (PK)-tagged GPCR and the Enzyme […] (EA)-tagged Beta-Arrestin fusion proteins. Upon GPR120 receptor stimulation/activation, the EA-tagged β-Arrestin portion is translocated to the tagged receptor, where the two enzyme fragments are brought within close proximity. Under these conditions, these fragments can interact and form an active Beta-gal enzyme complex through Enzyme Fragment Complementation (EFC). This active Beta-gal complex can enzymatically hydrolyse the substrate to produce a detectable light signal; therefore, activation as a function of agonist concentration can be expressed as an EC50 value to determine relative compound activities. This in vitro assay therefore serves to assess compound agonist activity of the GPR120.
In Procedure β-arrestin A, the cell used were PathHunter CHO-K1 GPR120 β-Arrestin Cell Line, expressing the long form of human GPR120 (Genbank accession number NM_181745), with 3000 cells per well.
The selected CHO-K1 GPR120 β-Arrestin cells were cultured in Ham's F12 media supplemented with 10% fetal bovine serum (FBS), 1% Glutamine, 1×p/s, 800 μg/ml G418 and 300 μg/ml Hygromycin B (for selection). Cell stocks were maintained and grown in a sub-confluent state using standard cell culture procedures. The day before the experiment, the cells were harvested with non-enzymatic cell dissociation buffer and re-suspended in complete growth media at the desired concentration. A Corning 384-plate was then seeded with the proper number of cells in a volume of 25 μL, per well. The seeded plates were incubated overnight at 37° C.
On the day of the experiment, the Assay Buffer containing (a) HBSS with Ca^++ and Mg^++, (b) 20 mM HEPES, and (c) 0.1% BSA stabilizer (pH 7.4) was prepared. The growth medium was gently removed from the cell plates and 20 μL of Assay Buffer added to each well. The plate was then incubated at 37° C. for 60 mins. Test compounds were serially diluted in Assay Buffer to desired concentrations (more particularly, to one or more of the following μM concentrations: 25 μM, 12.5 μM, 6.25 μM, 3.125 μM, 1.562 μM, 0.781 μM, 0.391 μM, 0.195 μM, 0.098 μM, 0.049 μM, 0.024 μM, 0.012 μM). Five μl of compound dilution was then added to each well and the plate incubated at 37° C. for 90 mins. The detection reagents were prepared according to the manufacture's instruction. Twelve μL of the detection reagents were added to each well and the plate incubated at room temperature for 60 mins.
The plates were read on an EnVision instrument, using Protocol name: Luminescence, Plate type: 384 Costar, Measurement height: 3 mm, Measurement time: 1 s, Aperture: 384 Plate aperture. The % activity relative to the positive control was calculated using the following equation:
as §7, with “% Activity values” for “data”, “were plotted versus the concentration of test compound and” for “were”, “a” for “a variable”, “slope=1 (fixed value)” for “slope (<2)”

[3] = molecular target: T1, Human GPR120 short form; assay: Human GPR120 calcium flux assay, Procedure Calcium A; details: HEK-293 cells expressing human GPR120 short form, 2500 cells/well, FLIPR
Description: as §1
In this procedure 2500 cells/well were employed.
as §2, §3, §4, §5, §6, §7

T2 sequence (Q5NUL3 1-377 isoform Q5NUL3-1): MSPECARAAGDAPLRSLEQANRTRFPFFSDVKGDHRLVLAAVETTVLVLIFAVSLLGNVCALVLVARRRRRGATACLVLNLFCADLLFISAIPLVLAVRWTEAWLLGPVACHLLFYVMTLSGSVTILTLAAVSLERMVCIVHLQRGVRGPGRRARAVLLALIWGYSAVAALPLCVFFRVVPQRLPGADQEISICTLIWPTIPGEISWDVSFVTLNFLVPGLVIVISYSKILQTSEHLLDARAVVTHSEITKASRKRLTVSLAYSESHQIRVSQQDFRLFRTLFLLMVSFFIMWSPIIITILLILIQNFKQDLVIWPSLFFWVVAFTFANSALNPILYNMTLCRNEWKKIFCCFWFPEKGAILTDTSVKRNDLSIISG
T2 sequence (P32121 whole entry partner): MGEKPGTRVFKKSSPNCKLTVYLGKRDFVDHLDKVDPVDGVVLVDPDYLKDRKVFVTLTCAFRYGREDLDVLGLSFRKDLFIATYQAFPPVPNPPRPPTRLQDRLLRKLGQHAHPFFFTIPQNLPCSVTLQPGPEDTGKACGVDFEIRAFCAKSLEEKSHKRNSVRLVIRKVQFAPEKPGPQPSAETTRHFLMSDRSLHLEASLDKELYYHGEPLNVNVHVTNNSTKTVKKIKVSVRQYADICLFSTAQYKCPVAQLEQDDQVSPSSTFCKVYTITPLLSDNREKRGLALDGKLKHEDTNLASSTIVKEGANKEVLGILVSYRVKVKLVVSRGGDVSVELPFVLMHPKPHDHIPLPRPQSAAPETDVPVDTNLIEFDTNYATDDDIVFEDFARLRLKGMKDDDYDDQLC

| Structure (SMILES) | EC50 [1] [µM] | EC50 [2] [µM] | EC50 [3] [µM] |
| --- | --- | --- | --- |
| Cc1c(CCC(=O)O)ccc(OCc2cccn2-c2ccc(Br)cc2)c1C [Compound 3, 3-(4-{[1-(4-Bromophenyl)-1H-pyrrol-2-yl]methoxy}-2,3-dimethylphenyl)propanoic acid] | 0.164 | 0.592 | 1.04 |
| Cc1c(CCC(=O)O)ccc(OCc2c(Cl)ccn2-c2ccc(Cl)cc2)c1C [Compound 8, 3-(4-{[3-Chloro-1-(4-chlorophenyl)-1H-pyrrol-2-yl]methoxy}-2,3-dimethylphenyl)propanoic acid] | 0.173 | 1 | 0.528 |
| OCCCc1ccc(OCc2c(Cl)ccn2-c2ccc(Cl)cc2)c(F)c1F [Compound 10, 3-(4-{[3-Chloro-1-(4-chlorophenyl)-1H-pyrrol-2-yl]methoxy}-2,3-difluorophenyl)propan-1-ol] | 0.74 | 0.258 | 1.09 |
| O=C(O)CCc1ccc(OCc2c(Cl)ccn2-c2ccc(Cl)cc2)c(F)c1F [Compound 11, 3-(4-{[3-chloro-1-(4-chlorophenyl)-1H-pyrrol-2-yl]methoxy}-2,3-difluorophenyl)propanoic acid] | 0.161 | 0.859 | 0.934 |
| COc1ccc(-n2ccc(C(F)(F)F)c2COc2ccc(CCC(=O)O)c(F)c2F)cc1 [Compound 26, 3-(2,3-Difluoro-4-{[1-(4-methoxyphenyl)-3-(trifluoromethyl)-1H-pyrrol-2-yl]methoxy}phenyl)propanoic acid] | 0.23 | 0.249 | 0.916 |
| COc1ccc(-n2ccc(C(F)(F)F)c2COc2ccc(CCC(=O)O)c(C)c2C)cc1 [Compound 24, 3-(4-{[1-(4-Methoxyphenyl)-3-(trifluoromethyl)-1H-pyrrol-2-yl]methoxy}-2,3-dimethylphenyl)propanoic acid] | 0.227 | 0.308 | 0.931 |
| COc1ccc(-n2ccc(C(F)(F)F)c2COc2ccc(CCCO)c(C)c2C)cc1 [Compound 25, 3-(4-{[1-(4-Methoxyphenyl)-3-(trifluoromethyl)-1H-pyrrol-2-yl]methoxy}-2,3-dimethylphenyl)propan-1-ol] | 0.413 | 0.203 | 0.608 |

Molecules with a lower EC50 [1], results first:

| EC50 [1] [µM] | EC50 [2] [µM] | EC50 [3] [µM] | Structure (SMILES) |
| --- | --- | --- | --- |
| 0.03 | 0.098 | 0.098 | Cc1ccc(-n2ccc(C(F)(F)F)c2COc2c(F)cc(CCCO)cc2F)cn1 [Compound 48, 3-(3,5-difluoro-4-((1-(6-methylpyridin-3-yl)-3-(trifluoromethyl)-1H-pyrrol-2-yl)methoxy)phenyl)propan-1-ol trifluoroacetic acid] |
| 0.028 | 0.016 | 0.119 | Cc1ccc(-n2ccc(C(F)(F)F)c2COc2c(F)cc(CCCO)cc2F)cc1 [Compound 37, 3-(3,5-difluoro-4-[[1-(4-methylphenyl)-3-(trifluoromethyl)-1H-pyrrol-2-yl]methoxy]phenyl)propan-1-ol] |
| 0.05 | 0.098 | 0.432 | Cc1ccc(-n2ccc(C(F)(F)F)c2COc2ccc(CCCO)c(F)c2F)cc1 [Compound 44, 3-(2,3-difluoro-4-[[1-(4-methylphenyl)-3-(trifluoromethyl)-1H-pyrrol-2-yl]methoxy]phenyl)propan-1-ol] |
| 0.082 | 0.048 | 0.434 | CCc1ccc(-n2ccc(C(F)(F)F)c2COc2c(F)cc(CCCO)cc2F)cc1 [Compound 33, 3-(4-[[1-(4-ethylphenyl)-3-(trifluoromethyl)-1H-pyrrol-2-yl]methoxy]-3,5-difluoro-phenyl)propan-1-ol] |
| 0.108 | 0.221 | 0.641 | COc1ccc(-n2ccc(C(F)(F)F)c2COc2c(F)cc(CCC(=O)O)cc2F)cc1 [Compound 28, 3-(3,5-Difluoro-4-{[1-(4-methoxyphenyl)-3-(trifluoromethyl)-1H-pyrrol-2-yl]methoxy}phenyl)propanoic acid] |
| 0.043 | 0.099 | 0.621 | OCCCc1cc(F)c(OCc2c(C(F)(F)F)ccn2-c2ccc(Cl)cc2)c(F)c1 [Compound 46, 3-(4-{[1-(4-Chlorophenyl)-3-(trifluoromethyl)-1H-pyrrol-2-yl]methoxy}-3,5-difluorophenyl)propan-1-ol] |
